Laboratory results: patent publication EP4467141A1, “PYRAZOLO-QUINOLINES AS SELECTIVE INHIBITORS OF GENOTOXIC STRESS-INDUCED IKK/NF- KB PATHWAYS FOR CANCER THERAPY” (Max-Delbrück-Centrum für Molekulare Medizin in der …, priority 2023, dated 2024)

Key:
Experiment in all cases: Kinase panel study
Format in all cases: biochemical
Conditions in all cases: read-out: Percentage of inhibition; for inhibition at 1 µM: 1000nM; for inhibition at 10 µM: 10000nM
[1] = target: T1, PEAK1 (Homo sapiens, UniProt Q9H792)
T1 construct: purchased Thermo Fisher Scientific
Method in brief: (§1)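 Inhibition was measured in an outsourced in vitro kinase panel using the ZLyte or Adapta format under the provider's standard procedures. Values are percent inhibition at 10 µM or 1 µM compound, and IC50s were also obtained.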

[2] = target: T2, PLK3 (Homo sapiens, UniProt Q9H4B4)
T2 construct: purchased Thermo Fisher Scientific
Method in brief: as §1

[3] = target: T3, EGFR (ErbB1) T790M (Homo sapiens, UniProt P00533, T790M)
T3 construct: purchased Thermo Fisher Scientific
Method in brief: as §1

[4] = target: T4, PRKCA (PKC alpha) (Homo sapiens, UniProt P17252)
T4 construct: purchased Thermo Fisher Scientific
Method in brief: as §1

[5] = target: T5, GSK3A (GSK3 alpha) (Homo sapiens, UniProt P49840)
T5 construct: purchased Thermo Fisher Scientific
Method in brief: as §1

[6] = target: T6, SBK1 (Homo sapiens, UniProt Q52WX2)
T6 construct: purchased Thermo Fisher Scientific
Method in brief: as §1

[7] = target: T7, CSNK2A1 (CK2 alpha 1) (Homo sapiens, UniProt P68400)
T7 construct: purchased Thermo Fisher Scientific
Method in brief: as §1

[8] = target: T8, INSR (Homo sapiens, UniProt P06213)
T8 construct: purchased Thermo Fisher Scientific
Method in brief: as §1

[9] = target: T9, JAK2 (Homo sapiens, UniProt O60674)
T9 construct: purchased Thermo Fisher Scientific
Method in brief: as §1

[10] = target: T10, CAMK2D (CaMKII delta) (Homo sapiens, UniProt Q13557)
T10 construct: purchased Thermo Fisher Scientific
Method in brief: as §1

[11] = target: T11, GRK6 (Homo sapiens, UniProt P43250)
T11 construct: purchased Thermo Fisher Scientific
Method in brief: as §1

[12] = target: T12, CHUK (IKK alpha) (Homo sapiens, UniProt O15111)
T12 construct: purchased Thermo Fisher Scientific
T12 sequence (O15111 1-745): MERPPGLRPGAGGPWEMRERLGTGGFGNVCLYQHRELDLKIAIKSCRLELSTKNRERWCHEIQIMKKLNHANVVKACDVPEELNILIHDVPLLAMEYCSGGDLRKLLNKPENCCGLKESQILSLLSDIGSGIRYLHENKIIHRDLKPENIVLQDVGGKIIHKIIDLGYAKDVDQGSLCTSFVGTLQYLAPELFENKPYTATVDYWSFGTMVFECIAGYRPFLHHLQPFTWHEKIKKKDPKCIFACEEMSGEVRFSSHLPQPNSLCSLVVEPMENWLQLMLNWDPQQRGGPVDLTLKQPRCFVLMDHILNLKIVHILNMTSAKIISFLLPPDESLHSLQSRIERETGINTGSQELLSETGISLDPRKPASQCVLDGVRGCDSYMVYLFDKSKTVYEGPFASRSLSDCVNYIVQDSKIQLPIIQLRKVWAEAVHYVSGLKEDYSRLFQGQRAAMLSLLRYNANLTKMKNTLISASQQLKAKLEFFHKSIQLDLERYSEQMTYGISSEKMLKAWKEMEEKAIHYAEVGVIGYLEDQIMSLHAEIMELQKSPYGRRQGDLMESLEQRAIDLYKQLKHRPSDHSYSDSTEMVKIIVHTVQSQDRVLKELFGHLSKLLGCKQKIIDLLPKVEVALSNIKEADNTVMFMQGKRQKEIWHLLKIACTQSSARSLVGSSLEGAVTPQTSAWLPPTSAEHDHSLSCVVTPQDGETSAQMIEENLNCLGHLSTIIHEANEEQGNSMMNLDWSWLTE
Method in brief: as §1

[13] = target: T13, CDK5/p25 (Homo sapiens, UniProt Q00535)
T13 construct: purchased Thermo Fisher Scientific
Method in brief: as §1

[14] = target: T14, LTK (TYK1) (Homo sapiens, UniProt P29376)
T14 construct: purchased Thermo Fisher Scientific
Method in brief: as §1

[15] = target: T15, TEK (TIE2) Y897S (Homo sapiens, UniProt Q02763, Y897S)
T15 construct: purchased Thermo Fisher Scientific
Method in brief: as §1

[16] = target: T16, DAPK3 (ZIPK) (Homo sapiens, UniProt O43293)
T16 construct: purchased Thermo Fisher Scientific
Method in brief: as §1

[17] = target: T17, CDK18/cyclin Y (Homo sapiens, UniProt Q07002)
T17 construct: purchased Thermo Fisher Scientific
Method in brief: as §1

[18] = target: T18, MAP4K4 (HGK) (Homo sapiens, UniProt O95819)
T18 construct: purchased Thermo Fisher Scientific
Method in brief: as §1

T16 sequence (O43293 whole entry): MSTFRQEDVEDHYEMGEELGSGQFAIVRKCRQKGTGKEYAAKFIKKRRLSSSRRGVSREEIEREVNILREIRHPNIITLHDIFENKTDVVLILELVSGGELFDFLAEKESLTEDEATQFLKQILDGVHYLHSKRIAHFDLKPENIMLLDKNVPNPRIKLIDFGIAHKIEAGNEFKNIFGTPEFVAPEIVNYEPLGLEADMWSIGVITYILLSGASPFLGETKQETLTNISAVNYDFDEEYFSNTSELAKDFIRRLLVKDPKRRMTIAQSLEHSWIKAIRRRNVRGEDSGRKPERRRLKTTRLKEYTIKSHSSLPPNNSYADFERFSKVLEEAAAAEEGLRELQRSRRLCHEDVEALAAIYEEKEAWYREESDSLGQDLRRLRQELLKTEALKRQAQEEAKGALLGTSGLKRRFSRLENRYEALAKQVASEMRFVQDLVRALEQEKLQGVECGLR
T7 sequence (P68400 whole entry): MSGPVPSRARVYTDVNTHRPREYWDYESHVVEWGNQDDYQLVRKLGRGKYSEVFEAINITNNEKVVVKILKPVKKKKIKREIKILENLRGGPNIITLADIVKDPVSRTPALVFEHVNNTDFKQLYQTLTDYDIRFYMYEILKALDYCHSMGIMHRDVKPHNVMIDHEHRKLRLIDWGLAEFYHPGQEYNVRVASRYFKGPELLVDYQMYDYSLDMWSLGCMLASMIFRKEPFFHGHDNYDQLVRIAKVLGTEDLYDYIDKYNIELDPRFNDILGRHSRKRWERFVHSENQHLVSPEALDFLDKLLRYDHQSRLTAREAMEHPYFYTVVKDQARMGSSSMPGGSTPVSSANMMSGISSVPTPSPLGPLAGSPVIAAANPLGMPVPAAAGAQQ
T14 sequence (P29376 17-864): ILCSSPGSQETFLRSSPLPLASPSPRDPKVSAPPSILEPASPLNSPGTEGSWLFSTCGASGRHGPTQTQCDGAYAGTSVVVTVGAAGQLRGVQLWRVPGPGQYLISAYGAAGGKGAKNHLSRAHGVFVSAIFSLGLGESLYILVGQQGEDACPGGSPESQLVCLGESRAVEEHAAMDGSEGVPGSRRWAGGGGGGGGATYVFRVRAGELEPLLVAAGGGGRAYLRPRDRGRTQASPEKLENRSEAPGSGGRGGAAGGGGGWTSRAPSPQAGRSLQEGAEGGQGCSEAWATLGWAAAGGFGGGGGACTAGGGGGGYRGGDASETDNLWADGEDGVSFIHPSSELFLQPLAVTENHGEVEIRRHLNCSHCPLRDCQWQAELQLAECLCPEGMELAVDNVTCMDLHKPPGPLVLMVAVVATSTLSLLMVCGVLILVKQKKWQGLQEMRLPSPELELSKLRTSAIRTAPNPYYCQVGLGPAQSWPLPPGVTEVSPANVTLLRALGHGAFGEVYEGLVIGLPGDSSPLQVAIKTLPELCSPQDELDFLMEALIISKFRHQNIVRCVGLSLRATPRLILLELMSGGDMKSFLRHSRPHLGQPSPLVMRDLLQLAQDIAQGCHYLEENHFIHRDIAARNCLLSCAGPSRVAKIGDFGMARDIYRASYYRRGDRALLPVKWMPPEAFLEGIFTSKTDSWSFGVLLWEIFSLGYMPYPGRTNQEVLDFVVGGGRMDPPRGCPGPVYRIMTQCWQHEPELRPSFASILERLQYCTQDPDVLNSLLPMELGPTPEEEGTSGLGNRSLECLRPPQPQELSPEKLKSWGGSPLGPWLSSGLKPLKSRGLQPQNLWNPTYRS
T15 sequence (Q02763 23-1124 Y897S): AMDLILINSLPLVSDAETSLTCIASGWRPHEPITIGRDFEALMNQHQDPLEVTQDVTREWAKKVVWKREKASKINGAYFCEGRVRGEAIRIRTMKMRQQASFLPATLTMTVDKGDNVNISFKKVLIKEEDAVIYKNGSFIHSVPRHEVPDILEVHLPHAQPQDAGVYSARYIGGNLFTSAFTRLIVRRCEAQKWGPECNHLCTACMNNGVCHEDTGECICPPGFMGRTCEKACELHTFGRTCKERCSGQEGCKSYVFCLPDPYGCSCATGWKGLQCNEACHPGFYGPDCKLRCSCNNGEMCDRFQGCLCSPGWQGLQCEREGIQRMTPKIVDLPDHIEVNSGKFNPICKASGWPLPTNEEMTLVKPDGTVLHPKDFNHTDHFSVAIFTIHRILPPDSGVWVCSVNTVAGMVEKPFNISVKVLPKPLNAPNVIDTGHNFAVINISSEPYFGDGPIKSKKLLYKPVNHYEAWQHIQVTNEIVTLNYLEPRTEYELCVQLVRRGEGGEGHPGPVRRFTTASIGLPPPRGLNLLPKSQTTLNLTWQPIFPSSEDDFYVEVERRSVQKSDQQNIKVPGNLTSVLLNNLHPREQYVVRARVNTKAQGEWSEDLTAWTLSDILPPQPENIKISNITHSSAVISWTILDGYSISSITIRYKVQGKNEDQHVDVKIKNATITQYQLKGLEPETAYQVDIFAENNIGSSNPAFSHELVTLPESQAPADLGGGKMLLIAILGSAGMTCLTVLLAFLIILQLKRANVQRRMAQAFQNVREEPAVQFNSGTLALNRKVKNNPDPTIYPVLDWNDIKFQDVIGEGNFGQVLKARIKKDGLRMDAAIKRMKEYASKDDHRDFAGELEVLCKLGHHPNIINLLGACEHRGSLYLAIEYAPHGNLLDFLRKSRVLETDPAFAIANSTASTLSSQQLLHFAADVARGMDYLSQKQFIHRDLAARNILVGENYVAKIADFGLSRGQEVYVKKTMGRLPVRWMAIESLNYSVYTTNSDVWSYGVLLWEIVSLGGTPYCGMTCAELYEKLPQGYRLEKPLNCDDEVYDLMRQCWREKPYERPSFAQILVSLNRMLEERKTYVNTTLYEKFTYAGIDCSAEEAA
T3 sequence (P00533 25-1210 T790M): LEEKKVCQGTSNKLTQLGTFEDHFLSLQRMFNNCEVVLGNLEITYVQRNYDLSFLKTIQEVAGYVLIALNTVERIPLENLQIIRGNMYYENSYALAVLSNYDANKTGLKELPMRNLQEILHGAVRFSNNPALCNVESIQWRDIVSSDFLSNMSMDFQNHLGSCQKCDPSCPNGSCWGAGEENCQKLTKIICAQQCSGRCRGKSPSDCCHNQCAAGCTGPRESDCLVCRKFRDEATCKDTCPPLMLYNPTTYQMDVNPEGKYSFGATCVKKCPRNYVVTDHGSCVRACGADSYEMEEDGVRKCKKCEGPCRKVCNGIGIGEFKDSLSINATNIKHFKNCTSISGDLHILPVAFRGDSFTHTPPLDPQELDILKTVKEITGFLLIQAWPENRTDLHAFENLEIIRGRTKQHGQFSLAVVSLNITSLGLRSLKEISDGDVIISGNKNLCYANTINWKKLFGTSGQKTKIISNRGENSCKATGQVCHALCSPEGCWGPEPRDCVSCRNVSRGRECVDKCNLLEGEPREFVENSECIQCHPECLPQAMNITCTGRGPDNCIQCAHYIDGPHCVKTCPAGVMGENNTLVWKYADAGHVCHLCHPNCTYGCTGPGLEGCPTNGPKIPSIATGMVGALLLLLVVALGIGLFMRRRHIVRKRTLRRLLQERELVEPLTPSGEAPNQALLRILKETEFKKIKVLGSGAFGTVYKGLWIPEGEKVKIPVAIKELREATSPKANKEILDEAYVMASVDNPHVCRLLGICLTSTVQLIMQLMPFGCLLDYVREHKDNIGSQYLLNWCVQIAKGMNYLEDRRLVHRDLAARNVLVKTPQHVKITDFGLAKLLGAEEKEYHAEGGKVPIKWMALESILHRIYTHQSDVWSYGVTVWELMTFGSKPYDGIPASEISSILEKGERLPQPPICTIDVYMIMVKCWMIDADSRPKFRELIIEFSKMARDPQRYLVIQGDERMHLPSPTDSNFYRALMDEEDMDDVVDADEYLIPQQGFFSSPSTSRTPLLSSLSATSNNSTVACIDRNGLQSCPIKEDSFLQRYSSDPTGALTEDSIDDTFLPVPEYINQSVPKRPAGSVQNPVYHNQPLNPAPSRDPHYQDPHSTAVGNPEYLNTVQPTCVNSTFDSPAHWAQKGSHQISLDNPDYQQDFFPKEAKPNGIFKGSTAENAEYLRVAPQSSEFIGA
T6 sequence (Q52WX2 whole entry): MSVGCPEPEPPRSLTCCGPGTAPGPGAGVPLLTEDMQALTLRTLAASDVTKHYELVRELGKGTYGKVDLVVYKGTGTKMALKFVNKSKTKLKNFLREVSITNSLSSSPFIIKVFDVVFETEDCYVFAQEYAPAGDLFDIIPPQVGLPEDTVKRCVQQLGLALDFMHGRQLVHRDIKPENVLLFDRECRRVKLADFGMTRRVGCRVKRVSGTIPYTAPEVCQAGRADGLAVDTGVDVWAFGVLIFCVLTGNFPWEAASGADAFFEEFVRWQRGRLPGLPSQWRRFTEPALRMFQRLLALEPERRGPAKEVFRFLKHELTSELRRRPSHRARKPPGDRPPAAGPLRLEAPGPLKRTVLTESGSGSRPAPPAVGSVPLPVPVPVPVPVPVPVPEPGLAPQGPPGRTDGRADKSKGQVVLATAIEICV

Row | SMILES | inhibition at 1 µM [1] [%] | inhibition at 10 µM [1] [%] | inhibition at 1 µM [2] [%] | inhibition at 10 µM [2] [%] | inhibition at 1 µM [3] [%] | inhibition at 10 µM [3] [%] | inhibition at 1 µM [4] [%] | inhibition at 10 µM [4] [%] | inhibition at 1 µM [5] [%] | inhibition at 10 µM [5] [%] | inhibition at 1 µM [6] [%] | inhibition at 10 µM [6] [%] | inhibition at 1 µM [7] [%] | inhibition at 10 µM [7] [%] | inhibition at 1 µM [8] [%] | inhibition at 10 µM [8] [%] | inhibition at 1 µM [9] [%] | inhibition at 10 µM [9] [%] | inhibition at 1 µM [10] [%] | inhibition at 10 µM [10] [%] | other results
1 | COc1ccc2cc3c(N)nn(C(=O)c4cccc(N(C)C)c4)c3nc2c1 [MW05, (3-Amino-7-methoxypyrazolo[3,4-b]quinolin-1-yl)-[3-(dimethylamino)phenyl]methanone] | 2 | 0 | 5 | 12 | 4 | 0 | 4 | -1 | 3 | 18 | -7 | -26 | 9 | 5 | 8 | -7 | -3 | -20 | 3 | 13 | inhibition at 1 µM [11]: 6%; inhibition at 10 µM [11]: 3%; inhibition at 1 µM [12]: 7%; inhibition at 10 µM [12]: 18%; inhibition at 1 µM [13]: 4%; inhibition at 10 µM [13]: 8%; inhibition at 1 µM [14]: 7%; inhibition at 10 µM [14]: -9%; inhibition at 1 µM [15]: -18%; inhibition at 10 µM [15]: -11%; inhibition at 1 µM [16]: 2%; inhibition at 10 µM [16]: -3%; inhibition at 1 µM [17]: 13%; inhibition at 10 µM [17]: 55%; inhibition at 1 µM [18]: 9%; inhibition at 10 µM [18]: 11%
2 | COc1ccc2c(c1OC)c(=O)n1c3ccc(O)cc3c3ccnc2c31 [MW01, 5-Hydroxy-10,11-dimethoxy-9H-benzo[c]indolo[3,2,1-ij][1,5]naphthyridin-9-one] | -1 | 16 | 6 | 23 | 8 | 19 | 11 | 18 | 25 | 55 | 3 | 3 | 9 | 18 | 1 | 11 | 15 | 48 | 13 | 60 | inhibition at 1 µM [11]: 0%; inhibition at 10 µM [11]: 5%; inhibition at 1 µM [12]: 19%; inhibition at 10 µM [12]: 21%; inhibition at 1 µM [13]: 4%; inhibition at 10 µM [13]: 12%; inhibition at 1 µM [14]: 19%; inhibition at 10 µM [14]: 44%; inhibition at 1 µM [15]: -14%; inhibition at 10 µM [15]: -10%; inhibition at 1 µM [16]: 2%; inhibition at 10 µM [16]: 9%; inhibition at 1 µM [17]: 5%; inhibition at 10 µM [17]: 15%; inhibition at 1 µM [18]: 64%; inhibition at 10 µM [18]: 80%
